Source: patent US12606541B2, “PPARg modulators and methods of use” (Eisai R&D Management Co., Ltd., priority 2020, dated 2026)

Target: T1, His6-TEV-PPARγ-(234-505) (Homo sapiens, UniProt P37231)
T1 construct: The His6-TEV-PPARγ-(234-505) protein for assay was expressed and purified; TEV cleavage site (N); made in house
T1 sequence (P37231 234-505): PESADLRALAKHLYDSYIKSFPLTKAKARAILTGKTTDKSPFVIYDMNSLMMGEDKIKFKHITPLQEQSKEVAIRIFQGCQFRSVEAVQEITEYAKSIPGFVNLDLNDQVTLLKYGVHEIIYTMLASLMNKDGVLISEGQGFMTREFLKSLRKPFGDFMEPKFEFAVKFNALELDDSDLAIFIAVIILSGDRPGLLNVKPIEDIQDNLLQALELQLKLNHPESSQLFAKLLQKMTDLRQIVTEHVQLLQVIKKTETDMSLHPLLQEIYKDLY
Experiment: TR-FRET Assay to Measure Co-R Peptide Recruitment to PPARγ
Format: biochemical
Details: Co-R peptide recruitment to PPARγ; read-out: TR-FRET AC50
Method: TR-FRET Assay to Measure Co—R Peptide Recruitment to PPARγ
The 2× detection solution contained anti-6×His-Terbium antibody (CisBio) and FITC labeled Co—R peptide (SMRT-ID2 from New England Peptide) at final concentrations of 5 and 200 nM respectively.
In these assay plates, the positive control in column 24 contained 500 nM (final) T0070907 and the negative control in column 23 contained an identical volume of DMSO. Then, 5 μL of 2+ protein working stock or controls were added to the plate and incubated for 20 minutes at room temperature. Reagents additions were performed with either a Combi (Thermo) or Mantis (Formulatory) pipetting device. The incubation was followed by addition of 5 μL of the 2× detection solution. Plates were covered, centrifuged, and incubated for an additional hour. The TR-FRET data was recorded with an Envision plate reader (Perkin Elmer), using settings recommended by Thermo Fisher. The TR-FRET signal of the positive and negative control's recruitment of FITC-Co—R peptide was used to normalize the TR-FRET signal to percent response and to determine the assay Z prime. Experiments were performed in triplicate and analyzed in GraphPad Prism 7.

AC50 [nM]	SMILES
> 1000	COc1cc(-c2cc(C(=O)N3CCC(C(=O)NC4CCC(C)(OC)CC4)CC3)n[nH]2)c(Cl)cn1 (centres unmarked) [1-[5-(5-chloro-2-methoxypyridin-4-yl)-1H-pyrazole-3-carbonyl]-N-(4-methoxy-4-methylcyclohexyl)piperidine-4-carboxamide]
> 1000	COc1cc(-c2cc(C(=O)N3CCC(C(=O)NC4(C)CCOCC4)CC3)n[nH]2)c(Cl)cn1 [1-[5-(5-chloro-2-methoxypyridin-4-yl)-1H-pyrazole-3-carbonyl]-N-(4-methyloxan-4-yl)piperidine-4-carboxamide]
> 1000	COc1cc(-c2cc(C(=O)N3CCC(C(=O)Nc4cnncc4Cl)CC3)n[nH]2)c(Cl)cn1 [1-[5-(5-chloro-2-methoxypyridin-4-yl)-1H-pyrazole-3-carbonyl]-N-(5-chloropyridazin-4-yl)piperidine-4-carboxamide]
> 1000	COc1cc(-c2cc(C(=O)N3CCC(C(=O)Nc4cnc(C)cn4)CC3)n[nH]2)c(Cl)cn1 [1-[5-(5-chloro-2-methoxypyridin-4-yl)-1H-pyrazole-3-carbonyl]-N-(5-methylpyrazin-2-yl)piperidine-4-carboxamide]
> 1000	COc1cc(-c2cc(C(=O)N3CCC(C(=O)NC4CNC(=O)C4)CC3)n[nH]2)c(Cl)cn1 (centres unmarked) [1-[5-(5-chloro-2-methoxypyridin-4-yl)-1H-pyrazole-3-carbonyl]-N-(5-oxopyrrolidin-3-yl)piperidine-4-carboxamide]
> 1000	COc1cc(-c2cc(C(=O)N3CCC(C(=O)Nc4cc(-c5ccccc5)[nH]n4)CC3)n[nH]2)c(Cl)cn1 [1-[5-(5-chloro-2-methoxypyridin-4-yl)-1H-pyrazole-3-carbonyl]-N-(5-phenyl-1H-pyrazol-3-yl)piperidine-4-carboxamide]
> 1000	COc1cc(-c2cc(C(=O)N3CCC(C(=O)NC4CCS(=O)(=O)c5ccc(F)cc54)CC3)n[nH]2)c(Cl)cn1 (centres unmarked) [1-[5-(5-chloro-2-methoxypyridin-4-yl)-1H-pyrazole-3-carbonyl]-N-(6-fluoro-1,1-dioxo-3,4-dihydro-2H-1λ^6-benzothiopyran-4-yl)piperidine-4-carboxamide]
> 1000	COc1cc(-c2cc(C(=O)N3CCC(C(=O)Nc4cncc(C)n4)CC3)n[nH]2)c(Cl)cn1 [1-[5-(5-chloro-2-methoxypyridin-4-yl)-1H-pyrazole-3-carbonyl]-N-(6-methylpyrazin-2-yl)piperidine-4-carboxamide]
> 1000	COc1cc(-c2cc(C(=O)N3CCC(C(=O)Nc4cnnc5ccccc45)CC3)n[nH]2)c(Cl)cn1 [1-[5-(5-chloro-2-methoxypyridin-4-yl)-1H-pyrazole-3-carbonyl]-N-(cinnolin-4-yl)piperidine-4-carboxamide]
> 1000	COc1cc(-c2cc(C(=O)N3CCC(C(=O)NCc4nc5c(cnn5C)c(=O)[nH]4)CC3)n[nH]2)c(Cl)cn1 [1-[5-(5-chloro-2-methoxypyridin-4-yl)-1H-pyrazole-3-carbonyl]-N-({1-methyl-4-oxo-1H,4H,5H-pyrazolo[3,4-d]pyrimidin-6-yl}methyl)piperidine-4-carboxamide]
> 1000	COc1cc(-c2cc(C(=O)N3CCC(C(=O)NCc4ccn5c(C)c(C)nc5c4)CC3)n[nH]2)c(Cl)cn1 [1-[5-(5-chloro-2-methoxypyridin-4-yl)-1H-pyrazole-3-carbonyl]-N-({2,3-dimethylimidazo[1,2-a]pyridin-7-yl}methyl)piperidine-4-carboxamide]
> 1000	COc1cc(-c2cc(C(=O)N3CCC(C(=O)NCc4nc5cccnc5[nH]4)CC3)n[nH]2)c(Cl)cn1 [1-[5-(5-chloro-2-methoxypyridin-4-yl)-1H-pyrazole-3-carbonyl]-N-({3H-imidazo[4,5-b]pyridin-2-yl}methyl)piperidine-4-carboxamide]
> 1000	COc1cc(-c2cc(C(=O)N3CCC(C(=O)NCc4c(C)nc5cc(=O)[nH]n5c4C)CC3)n[nH]2)c(Cl)cn1 [1-[5-(5-chloro-2-methoxypyridin-4-yl)-1H-pyrazole-3-carbonyl]-N-({5,7-dimethyl-2-oxo-1H,2H-pyrazolo[1,5-a]pyrimidin-6-yl}methyl)piperidine-4-carboxamide]
> 1000	COc1cc(-c2cc(C(=O)N3CCC(C(=O)NCc4ccc5ncnn5c4)CC3)n[nH]2)c(Cl)cn1 [1-[5-(5-chloro-2-methoxypyridin-4-yl)-1H-pyrazole-3-carbonyl]-N-({[1,2,4]triazolo[1,5-a]pyridin-6-yl}methyl)piperidine-4-carboxamide]
> 1000	COc1cc(-c2cc(C(=O)N3CCC(C(=O)NCc4nnc5ccccn45)CC3)n[nH]2)c(Cl)cn1 [1-[5-(5-chloro-2-methoxypyridin-4-yl)-1H-pyrazole-3-carbonyl]-N-({[1,2,4]triazolo[4,3-a]pyridin-3-yl}methyl)piperidine-4-carboxamide]
> 1000	COc1cc(-c2cc(C(=O)N3CCC(C(=O)NCc4ccc5nncn5c4)CC3)n[nH]2)c(Cl)cn1 [1-[5-(5-chloro-2-methoxypyridin-4-yl)-1H-pyrazole-3-carbonyl]-N-({[1,2,4]triazolo[4,3-a]pyridin-6-yl}methyl)piperidine-4-carboxamide]
> 1000	COc1cc(-c2cc(C(=O)N3CCC(C(=O)NCc4cn5ccnc5cn4)CC3)n[nH]2)c(Cl)cn1 [1-[5-(5-chloro-2-methoxypyridin-4-yl)-1H-pyrazole-3-carbonyl]-N-({imidazo[1,2-a]pyrazin-6-yl}methyl)piperidine-4-carboxamide]
> 1000	COc1cc(-c2cc(C(=O)N3CCC(C(=O)NCc4ccn5ccnc5c4)CC3)n[nH]2)c(Cl)cn1 [1-[5-(5-chloro-2-methoxypyridin-4-yl)-1H-pyrazole-3-carbonyl]-N-({imidazo[1,2-a]pyridin-7-yl}methyl)piperidine-4-carboxamide]
> 1000	COc1cc(-c2cc(C(=O)N3CCC(C(=O)NCc4cn5cccnc5n4)CC3)n[nH]2)c(Cl)cn1 [1-[5-(5-chloro-2-methoxypyridin-4-yl)-1H-pyrazole-3-carbonyl]-N-({imidazo[1,2-a]pyrimidin-2-yl}methyl)piperidine-4-carboxamide]
> 1000	COc1cc(-c2cc(C(=O)N3CCC(C(=O)NCc4cnc5nccn5c4)CC3)n[nH]2)c(Cl)cn1 [1-[5-(5-chloro-2-methoxypyridin-4-yl)-1H-pyrazole-3-carbonyl]-N-({imidazo[1,2-a]pyrimidin-6-yl}methyl)piperidine-4-carboxamide]
> 1000	COc1cc(-c2cc(C(=O)N3CCC(C(=O)NC4(c5cccc(Cl)c5)CC4)CC3)n[nH]2)c(Cl)cn1 [1-[5-(5-chloro-2-methoxypyridin-4-yl)-1H-pyrazole-3-carbonyl]-N-[1-(3-chlorophenyl)cyclopropyl]piperidine-4-carboxamide]
> 1000	COc1cc(-c2cc(C(=O)N3CCC(C(=O)NC(C)C4COC4)CC3)n[nH]2)c(Cl)cn1 (centres unmarked) [1-[5-(5-chloro-2-methoxypyridin-4-yl)-1H-pyrazole-3-carbonyl]-N-[1-(oxetan-3-yl)ethyl]piperidine-4-carboxamide]
> 1000	COc1cc(-c2cc(C(=O)N3CCC(C(=O)NC(C)c4cnccn4)CC3)n[nH]2)c(Cl)cn1 (centres unmarked) [1-[5-(5-chloro-2-methoxypyridin-4-yl)-1H-pyrazole-3-carbonyl]-N-[1-(pyrazin-2-yl)ethyl]piperidine-4-carboxamide]
